Patent US20130011845A1, “MICRORNA REGULATING THE INSULIN SIGNALING PATHWAY, AND METHOD FOR SCREENING MATERIAL FOR CONTROLLING THE ACTION OF A TARGET THEREOF” (SNU R & DB Foundation, priority 2009, published 2013)

Tested on: 3′UTR of fog2 mRNA
Experiment: luciferase assay with wild-type or mutated miR-200 target sites of FOG2 3′UTR
Format: cell-based, human
Conditions: Hela cell lines, compared to siGFP
Experimental: The inventors examined whether human miR-200 family miRNAs regulate the expression by directly binding to 3′ UTR of fog2 mRNA in the same manner as drosophila miR-8 miRNA regulates the expression by directly binding to 3′ UTR of ush mRNA. Specifically, in order to obtain cDNA of FOG2, represented by SEQ ID: 110, from K562 cell lines, total RNA was extracted using RNeasy mini kit (QIAGEN, US). Then, 1 μg of total RNA and 1 μl of Oligo-dT (Invitrogen, US) were charged with up to 50 μl of distilled water, and placed into SuperScript First-Strand Synthesis System (Invitrogen, US), followed by RT-PCR reaction. […] By using pCK-FOG2, primers noted in Table 8, and QuickChange Site-Directed Mutagenesis kit, one (FOG2 m1, FOG2 m2, FOG2 m3), two ((FOG2 m12, FOG2 m23) or three (FOG2 m123) mutants were introduced into three miR-200 target sites of FOG2 3′UTR. Hela cell lines were transfected with wild-type FOG2(FOG2 wt), FOG2 ml, FOG2 m2, FOG2 m3, FOG2 m12, FOG2 m23 or FOG2 m123, together with renilla luciferase expression vector and synthesized siGFP, miR-141/200a or miR-200b/c/429. Then, the activity of luciferase was measured in the same manner as described in Example 8-2. The synthesized miRNA include a mixture of the same levels of miRNAs including respective seed sequences. […]

Row | Substance | expression of luciferase, FOG2 3′UTR
1 | 5′-UAACACUGUCUGGUAACGAUGU-3′ (listed as RNA, chemistry not given here) [miR-200a] | suppressed the expression of luciferase, albeit less effectively than the other members did
2 | 5′-UAACACUGUCUGGUAAAGAUGG-3′ (listed as RNA, chemistry not given here) [miR-141] | suppressed the expression of luciferase, albeit less effectively than the other members did
